Legend:
[1] = Cytotoxicity against theophylline-stimulated mouse B16-4A5 cells assessed as cell viability at 30 uM after 72 hrs by MTT assay relative to control; assay type: toxicity; conditions: theophylline-stimulated B16-4A5 cells, read-out: Activity
[2] = Cytotoxicity against theophylline-stimulated mouse B16-4A5 cells assessed as cell viability at 3 uM after 72 hrs by MTT assay relative to control; assay type: toxicity; conditions: theophylline-stimulated B16-4A5 cells, read-out: Activity
[3] = Antimelanogenic activity in theophylline-stimulated mouse B16-4A5 cells assessed as inhibition of melanogenesis at 10 uM after 72 hrs relative to control; assay type: functional; conditions: B16-4A5, 72 h
[4] = Antimelanogenic activity in theophylline-stimulated mouse B16-4A5 cells assessed as inhibition of melanogenesis at 3 uM after 72 hrs relative to control; assay type: functional; conditions: B16-4A5, 72 h
[5] = Antimelanogenic activity in theophylline-stimulated mouse B16-4A5 cells assessed as inhibition of melanogenesis after 72 hrs relative to control; assay type: functional, cell-based
cells [6] = conditions: Mus musculus, B16-4A5, 72 h, read-out: INH
Description: Antimelanogenic activity in theophylline-stimulated mouse B16-4A5 cells assessed as inhibition of melanogenesis at 30 uM after 72 hrs relative to control

[7] = Cytotoxicity against theophylline-stimulated mouse B16-4A5 cells assessed as cell viability at 100 uM after 72 hrs by MTT assay relative to control; assay type: toxicity; conditions: theophylline-stimulated B16-4A5 cells, read-out: Activity
cells [8] = conditions: Mus musculus, B16-4A5, 72 h, read-out: INH; remark: listed apart in the source
[9] = Cytotoxicity against theophylline-stimulated mouse B16-4A5 cells assessed as cell viability at 10 uM after 72 hrs by MTT assay relative to control; assay type: toxicity; conditions: theophylline-stimulated B16-4A5 cells, read-out: Activity
[10] = Antimelanogenic activity in theophylline-stimulated mouse B16-4A5 cells assessed as inhibition of melanogenesis at 1 uM after 72 hrs relative to control; assay type: functional; conditions: B16-4A5, 72 h
[11] = Cytotoxicity against theophylline-stimulated mouse B16-4A5 cells assessed as cell viability at 1 uM after 72 hrs by MTT assay relative to control; assay type: toxicity; conditions: theophylline-stimulated B16-4A5 cells, read-out: Activity
[12] = Cytotoxicity against theophylline-stimulated mouse B16-4A5 cells assessed as cell viability at 0.3 uM after 72 hrs by MTT assay relative to control; assay type: toxicity; conditions: theophylline-stimulated B16-4A5 cells, read-out: Activity
[13] = Antimelanogenic activity in theophylline-stimulated mouse B16-4A5 cells assessed as inhibition of melanogenesis at 0.3 uM after 72 hrs relative to control; assay type: functional; conditions: B16-4A5, 72 h

SMILES	viability at 72 h, 30 µM [1]	viability at 72 h, 3 µM [2]	inhibition at 10 µM [3]	inhibition at 3 µM [4]	IC50 [5]	inhibition at 30 µM (cells [6])	viability at 72 h, 100 µM [7]	inhibition at 100 µM (cells [8])	viability at 72 h, 10 µM [9]	inhibition at 1 µM [10]	viability at 72 h, 1 µM [11]	viability at 72 h, 0.3 µM [12]	inhibition at 0.3 µM [13]
COC/C=C/c1ccc(O)cc1	93.6%	109%	25.1%	18.2%	19.5 µM	56.9%	107%	81.7%	104%	–	–	–	–
CC(=O)Oc1ccc(/C=C/CO)cc1	65.5%	92.9%	18%	10.7%	29.4 µM	96.9%	44.9%	94.8%	85.8%	–	–	–	–
OC/C=C/c1ccc(O)cc1	116%	98.9%	-2.8%	-3.4%	> 100 µM	35.8%	110%	46.9%	98.4%	–	–	–	–
CC[C@H](OC(C)=O)c1ccc(OC(C)=O)cc1	96.5%	106%	44.5%	41.6%	10.5 µM	74.1%	94.5%	105%	105%	–	–	–	–
CC(=O)OC/C=C/c1ccc(O)cc1	96.1%	99.2%	0%	4.1%	–	-3%	90.1%	-13.4%	100%	–	–	–	–
C=C[C@H](O)c1ccc(OC(C)=O)c(OC)c1	113%	104%	10.9%	5%	–	11.7%	124%	22.9%	114%	–	–	–	–
COc1cc(/C=C/CO)ccc1OC(C)=O	60.1%	90.6%	12.9%	5.5%	16.9 µM	102%	41.7%	63.3%	85.9%	–	–	–	–
O=Cc1ccc(O)cc1 [4-HYDROXYBENZALDEHYDE]	107%	107%	4.2%	11.3%	–	7.9%	103%	3.5%	103%	–	–	–	–
CCC(=O)c1ccc(O)cc1 [PAROXYPROPIONE]	117%	111%	-3.6%	4.1%	–	-1.9%	125%	-3.6%	116%	–	–	–	–
C=C[C@H](O)c1ccc(OC(C)=O)cc1	101%	87.9%	-0.4%	-6.7%	88.5 µM	14.9%	114%	56.7%	97.2%	–	–	–	–
C=C[C@@H](OC(C)=O)c1ccc(OC(C)=O)cc1	–	95.2%	69.2%	36.8%	4.5 µM	–	–	–	88.7%	21.2%	98.8%	96.6%	8.4%

Source: ChEMBL document CHEMBL3864140, “Melanogenesis inhibitory activity of a 7-O-9'-linked neolignan from Alpinia galanga fruit” (Bioorg Med Chem, 2016)
